Data on 8 compounds can be found in US20240368154A1 (GENOSCO Inc., priority 2023, published 2024).

Assay [1] concerns the target T1, Recombinant ROCK1 (amino acids 1-477) (Homo sapiens, UniProt Q13464).
T1 construct: Recombinant ROCK1 (amino acids 1-477)
In words: ROCK inhibition assay, LANCE Ultra TR-FRET kinase assay. The format is biochemical. As to conditions: at Km of ATP (table title); method: 1 mM ATP, 50 nM ULight-CREBtide substrate, 1 hour, room temperature. The procedure: (§1) Kinase IC50 was determined through an in vitro assay based on LANCE Ultra TR-FRET (Time-Resolved Fluorescence Resonance Energy Transfer) homogeneous technologies method (Perkin Elmer). Recombinant ROCK1 (amino acids 1-477) and ROCK2 (amino acids 5-554) proteins were purchased from Carna Biosciences and SignalChem. Compound activities were measured by Envision and IC50s were calculated. The assays were performed in white LUMITRAC™ 200 96 well half-area microplates from Greiner Bio-One. The kinase reaction buffer consisted of 50 mM HEPES pH 7.5, 1 mM EGTA, 10 mM MgCl2, 2 mM DTT and 0.01% Tween-20. Kinases were incubated with 50 nM (ULight-CREBtide) substrate in the presence of 1 mM (ROCK1) or 1 mM (ROCK2) of ATP. The kinase reaction was carried out for 1 hour before addition of a stopping buffer to a final of 10 mM EDTA and 0.6 nM of LANCE Ultra Europium anti-phospho-CREB (Ser133) antibody (PerkinElmer TRF0200) in LANCE detection buffer. All assay incubations were performed at room temperature, and the microplates were sealed with polyester film during that time. The reaction was incubated for 1 hour, and the signal was read in Envision in TR-FRET mode (excitation at 320 nm and emission at 615/665 nm).
(§2) As used herein, a way to describe potency of inhibitory activity (nM) is a value of inhibitory activity at 50% (IC50).

For assay [2], the target named is T2, Recombinant ROCK2 (amino acids 5-554) (Homo sapiens, UniProt O75116).
T2 construct: ROCK2 (amino acids 5-554)
The description is as above. It is filed as biochemical. Conditions: at Km of ATP (table title); method: 1 mM ATP, 50 nM ULight-CREBtide substrate, 1 hour, room temperature. The procedure:
as §1, §2

T2 sequence (O75116 5-554): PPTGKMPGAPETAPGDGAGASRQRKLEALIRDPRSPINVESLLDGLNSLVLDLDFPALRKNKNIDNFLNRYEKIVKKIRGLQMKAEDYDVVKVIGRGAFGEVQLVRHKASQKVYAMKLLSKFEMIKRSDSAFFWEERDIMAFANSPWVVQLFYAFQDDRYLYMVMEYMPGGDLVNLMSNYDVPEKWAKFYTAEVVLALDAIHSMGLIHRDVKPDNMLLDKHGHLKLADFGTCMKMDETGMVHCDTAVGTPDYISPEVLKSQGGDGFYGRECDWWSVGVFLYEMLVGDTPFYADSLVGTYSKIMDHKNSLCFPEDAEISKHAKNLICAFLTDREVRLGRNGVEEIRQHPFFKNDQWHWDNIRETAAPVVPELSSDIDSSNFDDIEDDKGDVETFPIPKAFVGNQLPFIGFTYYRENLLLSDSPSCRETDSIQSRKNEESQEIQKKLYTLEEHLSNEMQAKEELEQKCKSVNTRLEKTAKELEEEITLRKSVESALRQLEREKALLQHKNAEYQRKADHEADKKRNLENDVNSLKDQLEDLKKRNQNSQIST
T1 sequence (Q13464 1-477): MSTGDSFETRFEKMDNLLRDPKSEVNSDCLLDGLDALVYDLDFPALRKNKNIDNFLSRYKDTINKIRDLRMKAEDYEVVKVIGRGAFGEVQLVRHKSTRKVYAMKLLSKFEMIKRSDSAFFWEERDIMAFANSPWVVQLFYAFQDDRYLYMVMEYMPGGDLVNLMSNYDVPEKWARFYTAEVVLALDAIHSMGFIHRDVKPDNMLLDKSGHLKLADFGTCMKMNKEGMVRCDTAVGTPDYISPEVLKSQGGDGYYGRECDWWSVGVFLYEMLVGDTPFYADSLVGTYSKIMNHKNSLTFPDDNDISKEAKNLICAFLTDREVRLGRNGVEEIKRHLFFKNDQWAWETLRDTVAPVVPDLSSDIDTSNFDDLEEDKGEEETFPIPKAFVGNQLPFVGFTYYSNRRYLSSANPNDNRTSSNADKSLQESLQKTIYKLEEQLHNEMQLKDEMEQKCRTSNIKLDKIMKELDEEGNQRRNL

With `C[C@H](O)Cn1cc(C(=O)[C@@H]2COc3ccc(Cl)cc3C2)c2cnc(-c3cn[nH]c3F)cc21` [Compound 1-30], the concentration for half-maximal inhibition (IC50) in assay [1] is 11 to 50 nM; in assay [2] it was below 10 nM.

For `CC(C)(O)Cn1cc(C(=O)C2COc3ccc(Cl)cc3C2)c2cnc(-c3cn[nH]c3F)nc21` (stereo not shown) [Compound 1-54], the results for the IC50 in assay [1] and in assay [2] were 11 to 50 nM and below 10 nM, respectively.

As for `COc1n[nH]cc1-c1ccc2c(C(=O)C3COc4ccc(Cl)cc4C3)cn(CCO)c2c1` (racemic) [Compound 2-17], the IC50 in assay [1] and in assay [2] was 11 to 50 nM in each case.

Turning to `C[C@H](O)Cn1cc(C(=O)[C@@H]2COc3ccc(Cl)cc3C2)c2cnc(-c3cn[nH]c3Cl)nc21` [Compound 1-46], the IC50 in assay [1] and in assay [2] was below 10 nM each time.

As to `O=C(c1cn(CCO)c2cc(-c3c[nH]nc3Cl)ncc12)C1COc2ccc(F)cc2C1` (stereo not shown) [Compound 1-13], the concentration for half-maximal inhibition (IC50) in assay [1] is 11 to 50 nM; in assay [2], below 10 nM.

In the case of `CC(C)(O)Cn1cc(C(=O)C2COc3ccc(Cl)cc3C2)c2cnc(-c3cn[nH]c3Cl)nc21` (stereo not shown) [Compound 1-57], the IC50 in assay [1] and in assay [2] was below 10 nM each time.

In the case of `C[C@H](O)Cn1cc(C(=O)[C@@H]2COc3ccc(Cl)cc3C2)c2cnc(-c3cn[nH]c3Cl)cc21` [Compound 1-9], the IC50 in assay [1] was 11 to 50 nM; in assay [2] it was below 10 nM.

Regarding `COc1ccc2c(c1)CC(C(=O)c1cn(CCO)c3nc(-c4c[nH]nc4Cl)ccc13)CO2` (stereo not shown) [Compound 1-22], the IC50 in assay [1] and in assay [2] was below 10 nM each time.
